According to patent US20230263822A1, “MODULATION OF FACTOR 11 EXPRESSION” (Ionis Pharmaceuticals, Inc., priority 2008, published 2023):

Assays:
[1] = test system: Factor 11 protein; experiment: Factor 11 protein in monkey plasma by sandwich ELISA (Example 45); format: in vivo, cynomolgus monkeys; conditions: escalating dose regimen; for Inhibition of Factor 11 protein relative to the PBS control: plasma ELISA
Description: (§1) Groups, each consisting of two male and three female monkeys, were injected subcutaneously with ISIS 416838, ISIS 416850, ISIS 416858, ISIS 416864, or ISIS 417002 in escalating doses. Antisense oligonucleotide was administered to the monkeys at 5 mg/kg three times per a week for week 1; 5 mg/kg twice per week for weeks 2 and 3; 10 mg/kg three times per week for week 4; 10 mg/kg twice per week for weeks 5 and 6; 25 mg/kg three times per week for week 7; and 25 mg/kg twice per week for weeks 8, 9, 10, 11, and 12. One control group, consisting of two male and three female monkeys, was injected subcutaneously with PBS according to the same dosing regimen. An additional experimental group, consisting of two male and three female monkeys, was injected subcutaneously with ISIS 416850 in a chronic, lower dose regimen. Antisense oligonucleotide was administered to the monkeys at 5 mg/kg three times per week for week 1; 5 mg/kg twice per week for week 2 and 3; 10 mg/kg three times per week for week 4; and 10 mg/kg twice per week for weeks 5 to 12. Body weights were measured weekly. Blood samples were collected 14 days and 5 days before the start of treatment and subsequently once per week for Factor 11 protein activity analysis in plasma, fibrinogen measurement, PT and aPTT measurements, bleeding times, and measurement of various hematologic factors. On day 85, the monkeys were euthanized by exsanguination while under deep anesthesia, and organs harvested for further analysis.
Plasma samples from all monkey groups taken on different days were analyzed by a sandwich-style ELISA assay (Affinity Biologicals Inc.) using an affinity-purified polyclonal anti-Factor 11 antibody as the capture antibody and a peroxidase-conjugated polyclonal anti-Factor 11 antibody as the detecting antibody. Monkey plasma was diluted 1:50 for the assay. Peroxidase activity was expressed by incubation with the substrate o-phenylenediamine. The color produced was quantified using a microplate reader at 490 nm and was considered to be proportional to the concentration of Factor 11 in the samples.
The results are presented in Table 115, expressed as percentage reduction relative to that of the PBS control.

[2] = Bleeding assay, Surgicutt Jr. device (Example 45); format: in vivo, cynomolgus monkeys; design: unit not given here; conditions: escalating dose regimen
Description: as §1
On different days during the treatment period, bleeding assay was performed using a Surgicutt Jr. device (ITC, New Jersey). Monkeys were placed in monkey chair with their arm placed in a steady support. The arm was lightly shaved and a sphygmomanometer was placed on the upper arm. The cuff of the sphygmomanometer was inflated to 40 mm Hg and this pressure was maintained throughout the procedure. The area on the upper arm to be incised was cleansed with an antiseptic swab and the Surgicutt Jr device was used to make an incision over the lateral aspect, volar surface of the forearm, parallel to and 5 cm below the antecubital crease. At the exact moment the incision was made, a stopwatch was started. Every 30 seconds, blood from the incision was blotted out using a blotting paper without directly touching the incision, so that formation of the platelet plug was not disturbed. Blood was blotted out every 30 seconds until blood no longer stained the paper. The stopwatch was then stopped and the bleeding time determined. The sphygmomanometer was removed from the animal's arm, the incision site was antiseptically swabbed and a wound closure strip applied. The ISIS oligonucleotide, ISIS 416850, given with the chronic dose regimen is distinguished from the other oligonucleotides with an asterisk (*).

[3] = Body and organ weights of cynomolgus monkeys (Example 45); format: in vivo; conditions: for body weights: escalating dose regimen;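 on Organ weights, Kidney: absolute organ weight in grams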;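 on Organ weights, Liver: absolute organ weight in grams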;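 on Organ weights, Spleen: absolute organ weight in grams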
Description: as §1
Body weights were taken once weekly throughout the dosing regimen. […] Organ weights were taken after the animals were euthanized and livers, kidneys and spleens were harvested and weighed. […] The ISIS oligonucleotide, ISIS 416850, given with the chronic dose regimen is distinguished from the other oligonucleotides with an asterisk (*).

[4] = Kidney function, urine protein to creatinine ratio in cynomolgus monkeys (Example 45); format: in vivo
Description: as §1
To evaluate the impact of ISIS oligonucleotides on kidney function, urine samples were collected.

[5] = mouse, in vivo, sc, 50 mg/kg
[6] = Tolerability in Sprague-Dawley rats: liver function (Example 35); conditions: plasma, 50 mg/kg s.c. twice per week for 6 weeks
[7] = after the animals were euthanized

**Q.** For “ISIS 416858: MOE gapmer, nucleobases 1275 to 1318 of SEQ ID NO: 1 (Table 8) (antisense ACGGCATTGGTGCACAGTTT; MOE gapmer, wing and gap sizes not given here)”, which “Factor 11 protein levels in plasma” value ([1]; cynomolgus monkeys, ELISA) is on record?
**A.** time-dependent decrease in protein levels

**Q.** And the “Inhibition of Factor 11 protein relative to the PBS control” value ([1]; day 8)?
**A.** 6%

**Q.** What about the “Inhibition of Factor 11 protein relative to the PBS control” value ([1]; day 15) of the same substance?
**A.** 16%

**Q.** What about the “Inhibition of Factor 11 protein relative to the PBS control” value ([1]; day 22) of the same substance?
**A.** 23%

**Q.** And the “Inhibition of Factor 11 protein relative to the PBS control” value ([1]; day 29)?
**A.** 28%

**Q.** And the “Inhibition of Factor 11 protein relative to the PBS control” value ([1]; day 36)?
**A.** 35%

**Q.** And the “Inhibition of Factor 11 protein relative to the PBS control” value ([1]; day 43)?
**A.** 39%

**Q.** And the “Inhibition of Factor 11 protein relative to the PBS control” value ([1]; day 50)?
**A.** 49%

**Q.** What about the “Inhibition of Factor 11 protein relative to the PBS control” value ([1]; day 57) of the same substance?
**A.** 60%

**Q.** And the “Inhibition of Factor 11 protein relative to the PBS control” value ([1]; day 64)?
**A.** 68%

**Q.** And the “Inhibition of Factor 11 protein relative to the PBS control” value ([1]; day 71)?
**A.** 71%

**Q.** And the “Inhibition of Factor 11 protein relative to the PBS control” value ([1]; day 78)?
**A.** 73%

**Q.** What about the “Inhibition of Factor 11 protein relative to the PBS control” value ([1]; day 85) of the same substance?
**A.** 78%

**Q.** And the “Inhibition of Factor 11 protein relative to the PBS control” value ([1]; day −5)?
**A.** 0%

**Q.** What about the “Inhibition of Factor 11 protein relative to the PBS control” value ([1]; day −14) of the same substance?
**A.** 0%

**Q.** And the bleeding time ([2]; day 15)?
**A.** 146

**Q.** And the bleeding time ([2]; day 22)?
**A.** 100

**Q.** What about the bleeding time ([2]; day 36) of the same substance?
**A.** 206

**Q.** And the bleeding time ([2]; day 43)?
**A.** 111

**Q.** And the bleeding time ([2]; day 57)?
**A.** 138

**Q.** What about the bleeding time ([2]; day 64) of the same substance?
**A.** 113

**Q.** What about the bleeding time ([2]; day 78) of the same substance?
**A.** 186

**Q.** What about the bleeding time ([2]; day 85) of the same substance?
**A.** 191

**Q.** What about the bleeding time ([2]; day −5) of the same substance?
**A.** 149

**Q.** And the bleeding time ([2]; day −14)?
**A.** 154

**Q.** What about the “Organ weights, Kidney” value [3, 7] of the same substance?
**A.** 13 g

**Q.** What about the “Organ weights, Liver” value [3, 7] of the same substance?
**A.** 60 g

**Q.** And the “Organ weights, Spleen” value [3, 7]?
**A.** 12 g

**Q.** And the “Spleen weight” value ([3]; cynomolgus monkeys, compared to the PBS control)?
**A.** shows increase in spleen weight

**Q.** What about the body weights ([3]; day 1) of the same substance?
**A.** 2912 g

**Q.** And the body weights ([3]; day 8)?
**A.** 2740 g

**Q.** What about the body weights ([3]; day 15) of the same substance?
**A.** 2760 g

**Q.** What about the body weights ([3]; day 22) of the same substance?
**A.** 2800 g

**Q.** What about the body weights ([3]; day 29) of the same substance?
**A.** 2763 g

**Q.** What about the body weights ([3]; day 36) of the same substance?
**A.** 2584 g

**Q.** And the body weights ([3]; day 43)?
**A.** 2607 g

**Q.** What about the body weights ([3]; day 50) of the same substance?
**A.** 2646 g

**Q.** And the body weights ([3]; day 57)?
**A.** 2617 g

**Q.** What about the body weights ([3]; day 64) of the same substance?
**A.** 2618 g

**Q.** And the body weights ([3]; day 71)?
**A.** 2865 g

**Q.** And the body weights ([3]; day 78)?
**A.** 2713 g

**Q.** What about the “urine protein to creatinine ratio” value ([4]; Day 80) of the same substance?
**A.** 0.10

**Q.** And the “urine protein to creatinine ratio” value ([4]; Day 84)?
**A.** 0.07

**Q.** And the HCT [5]?
**A.** 50%

**Q.** What about the Lymphocyte [5] of the same substance?
**A.** 5480 cells/μL

**Q.** And the Neutrophil [5]?
**A.** 2229 cells/μL

**Q.** What about the Platelets [5] of the same substance?
**A.** 782 10^3/μL

**Q.** And the RBC [5]?
**A.** 9 10^6/μL

**Q.** What about the WBC [5] of the same substance?
**A.** 8 10^3/μL

**Q.** And the hemoglobin [5]?
**A.** 14 g/dL

**Q.** And the monocytes [5]?
**A.** 248 cells/μL

**Q.** What about the ALT [6] of the same substance?
**A.** 13 IU/L

**Q.** What about the AST [6] of the same substance?
**A.** 4 IU/L

**Q.** What about the Albumin [6] of the same substance?
**A.** 2

**Q.** What about the Bilirubin [6] of the same substance?
**A.** 4 mg/dL
